Measurements taken from US9359308B2, “Pyrazine kinase inhibitors” (Portola Pharmaceuticals, Inc., priority 2011, dated 2016).

biological target: T1, full length active recombinant SYK enzyme (Homo sapiens, UniProt P43405); assay: Inhibition of Syk tyrosine phosphorylation activity (LANCE TR-FRET kinase assay); type: biochemical; conditions: activity in the Syk assays, class symbols
T1 construct: full length active recombinant SYK enzyme (Millipore, Calif.); purchased Millipore
Outline: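 IC50 was derived by non-linear regression of TR-FRET signal (Eu-W1024-PY100 donor, streptavidin-APC acceptor) read 1 h after EDTA quench. The kinase step ran 1 h at room temperature with 1 nM full-length SYK, 550 nM biotinylated DEEDYESP substrate and 100 μM ATP in Tris pH 7.5/MgCl2/DTT at 3% final DMSO.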

Structure (SMILES) | IC50 [nM]
NC(=O)c1ncc(N[C@@H]2CCCC[C@@H]2N)nc1Nc1cc(F)c2ncccc2c1 [Example 205, 5-((1R,2S)-2-aminocyclohexylamino)-3-(8-fluoroquinolin-6-ylamino)pyrazine-2-carboxamide] | < 1
CC(C)[C@@H](Nc1cnc(C(N)=O)c(Nc2cc(F)c3ncccc3c2)n1)C(N)=O [Example 206, (R)-5-(1-amino-3-methyl-1-oxobutan-2-ylamino)-3-(8-fluoroquinolin-6-ylamino)pyrazine-2-carboxamide] | 1 to 10
CC[C@@H](Nc1cnc(C(N)=O)c(Nc2cc(F)c3ncccc3c2)n1)C(N)=O [Example 208, (R)-5-(1-amino-1-oxobutan-2-ylamino)-3-(8-fluoroquinolin-6-ylamino)pyrazine-2-carboxamide] | 1 to 10
CC[C@@H](Nc1cnc(C(N)=O)c(Nc2cnn(C)c2)n1)C(N)=O [Example 211, (R)-5-(1-amino-1-oxobutan-2-ylamino)-3-(1-methyl-1H-pyrazol-4-ylamino)pyrazine-2-carboxamide] | 100 to 1000
Cc1cc(Nc2nc(N[C@@H](C(N)=O)C(C)C)cnc2C(N)=O)sn1 [Example 212, (R)-5-(1-amino-3-methyl-1-oxobutan-2-ylamino)-3-(3-methylisothiazol-5-ylamino)pyrazine-2-carboxamide] | 1 to 10
NC(=O)c1ncc(N[C@@H]2CCCC[C@@H]2N)nc1Nc1ccnnc1 [Example 213, 5-((1R,2S)-2-aminocyclohexylamino)-3-(pyridazin-4-ylamino)pyrazine-2-carboxamide] | 10 to 100
Cc1cc(Nc2nc(N[C@@H](C(N)=O)C(C)(C)C)cnc2C(N)=O)sn1 [Example 214, (R)-5-(1-amino-3,3-dimethyl-1-oxobutan-2-ylamino)-3-(3-methylisothiazol-5-ylamino)pyrazine-2-carboxamide] | 10 to 100
Cc1cc(Nc2nc(N[C@H](C)C(N)=O)cnc2C(N)=O)sn1 [Example 215, (R)-5-(1-amino-1-oxopropan-2-ylamino)-3-(3-methylisothiazol-5-ylamino)pyrazine-2-carboxamide] | 10 to 100
CC(C)C[C@@H](Nc1cnc(C(N)=O)c(Nc2cncc(Cl)c2)n1)C(N)=O [Example 216, (R)-5-(1-amino-4-methyl-1-oxopentan-2-ylamino)-3-(5-chloropyridin-3-ylamino)pyrazine-2-carboxamide] | 1 to 10
NC(=O)c1ncc(N[C@@H]2CCCC[C@@H]2N)nc1Nc1cncc(Cl)c1 [Example 217, 5-((1R,2S)-2-aminocyclohexylamino)-3-(5-chloropyridin-3-ylamino)pyrazine-2-carboxamide] | 1 to 10
CC[C@@H](Nc1cnc(C(N)=O)c(Nc2cnn(CC3CC3)c2)n1)C(N)=O [Example 218, (R)-5-(1-amino-1-oxobutan-2-ylamino)-3-(1-(cyclopropylmethyl)-1H-pyrazol-4-ylamino)pyrazine-2-carboxamide] | 100 to 1000
NC(=O)c1ncc(N[C@@H]2CCCC[C@@H]2N)nc1Nc1cnn(CC2CC2)c1 [Example 219, 5-((1R,2S)-2-aminocyclohexylamino)-3-(1-(cyclopropylmethyl)-1H-pyrazol-4-ylamino)pyrazine-2-carboxamide] | 10 to 100
CCc1cc(Nc2nc(N[C@H](CC)C(N)=O)cnc2C(N)=O)sn1 [Example 221, (R)-5-(1-amino-1-oxobutan-2-ylamino)-3-(3-ethylisothiazol-5-ylamino)pyrazine-2-carboxamide] | 1 to 10
CC(C)[C@@H](Nc1cnc(C(N)=O)c(Nc2cncc(Cl)c2)n1)C(N)=O [Example 222, (R)-5-(1-amino-3-methyl-1-oxobutan-2-ylamino)-3-(5-chloropyridin-3-ylamino)pyrazine-2-carboxamide] | 10 to 100
CC[C@@H](Nc1cnc(C(N)=O)c(Nc2cncc(Cl)c2)n1)C(N)=O [Example 223, (R)-5-(1-amino-1-oxobutan-2-ylamino)-3-(5-chloropyridin-3-ylamino)pyrazine-2-carboxamide] | 10 to 100
CCc1cc(Nc2nc(N[C@@H](C(N)=O)C(C)C)cnc2C(N)=O)sn1 [Example 224, (R)-5-(1-amino-3-methyl-1-oxobutan-2-ylamino)-3-(3-ethylisothiazol-5-ylamino)pyrazine-2-carboxamide] | 1 to 10
CCc1cc(Nc2nc(N[C@H](CC3CC3)C(N)=O)cnc2C(N)=O)sn1 [Example 225, (R)-5-(1-amino-3-cyclopropyl-1-oxopropan-2-ylamino)-3-(3-ethylisothiazol-5-ylamino)pyrazine-2-carboxamide] | 1 to 10
CCc1cc(Nc2nc(N[C@@H]3CCCC(F)(F)[C@@H]3N)cnc2C(N)=O)sn1 [Example 226, 5-((1R,2R)-2-amino-3,3-difluorocyclohexylamino)-3-(3-ethylisothiazol-5-ylamino)pyrazine-2-carboxamide] | 10 to 100
NC(=O)c1ncc(N[C@@H]2CCCC(F)(F)[C@@H]2N)nc1Nc1cnc2cc(F)ccc2c1 [Example 227, 5-((1R,2R)-2-amino-3,3-difluorocyclohexylamino)-3-(7-fluoroquinolin-3-ylamino)pyrazine-2-carboxamide] | 10 to 100
CC[C@@H](Nc1cnc(C(N)=O)c(Nc2cc(C(C)(C)C)ns2)n1)C(N)=O [Example 228, (R)-5-(1-amino-1-oxobutan-2-ylamino)-3-(3-tert-butylisothiazol-5-ylamino)pyrazine-2-carboxamide] | 10 to 100
CC(C)(C)c1cc(Nc2nc(N[C@H](CC3CC3)C(N)=O)cnc2C(N)=O)sn1 [Example 229, (R)-5-(1-amino-3-cyclopropyl-1-oxopropan-2-ylamino)-3-(3-tert-butylisothiazol-5-ylamino)pyrazine-2-carboxamide] | 10 to 100
CN1C(=O)COc2ccc(Nc3nc(N[C@@H]4CCCC(F)(F)[C@@H]4N)cnc3C(N)=O)cc21 [Example 230, 5-((1R,2R)-2-amino-3,3-difluorocyclohexylamino)-3-(4-methyl-3-oxo-3,4-dihydro-2H-benzo[b][1,4]oxazin-6-ylamino)pyrazine-2-carboxamide] | 10 to 100
CC[C@@H](Nc1cnc(C(N)=O)c(Nc2cnc3ccc(F)cc3c2)n1)C(N)=O [Example 232, (R)-5-(1-amino-1-oxobutan-2-ylamino)-3-(6-fluoroquinolin-3-ylamino)pyrazine-2-carboxamide] | 1 to 10
CC[C@@H](Nc1cnc(C(N)=O)c(Nc2cnc3cc(F)ccc3c2)n1)C(N)=O [Example 233, (R)-5-(1-amino-1-oxobutan-2-ylamino)-3-(7-fluoroquinolin-3-ylamino)pyrazine-2-carboxamide] | 1 to 10
CC(C)(C)[C@@H](Nc1cnc(C(N)=O)c(Nc2ccc3cccnc3c2)n1)C(N)=O [Example 235, (R)-5-(1-amino-3,3-dimethyl-1-oxobutan-2-ylamino)-3-(quinolin-7-ylamino)pyrazine-2-carboxamide] | 10 to 100

Results, then the compound that gave them:

IC50 [nM] | Structure (SMILES)
1 to 10 | NC(=O)c1ncc(N[C@@H]2CCCC[C@@H]2N)nc1Nc1cnc2c(F)cccc2c1 [Example 202, 5-((1R,2S)-2-aminocyclohexylamino)-3-(8-fluoroquinolin-3-ylamino)pyrazine-2-carboxamide]
1 to 10 | CC(C)[C@@H](Nc1cnc(C(N)=O)c(Nc2cnc3cc(F)ccc3c2)n1)C(N)=O [Example 203, (R)-5-(1-amino-3-methyl-1-oxobutan-2-ylamino)-3-(7-fluoroquinolin-3-ylamino)pyrazine-2-carboxamide]
1 to 10 | CC(C)[C@@H](Nc1cnc(C(N)=O)c(Nc2cnc3c(F)cccc3c2)n1)C(N)=O [Example 204, (R)-5-(1-amino-3-methyl-1-oxobutan-2-ylamino)-3-(8-fluoroquinolin-3-ylamino)pyrazine-2-carboxamide]
1 to 10 | CN1C(=O)COc2ccc(Nc3nc(N[C@@H]4CCCC[C@@H]4N)cnc3C(N)=O)cc21 [Example 207, 5-((1R,2S)-2-aminocyclohexylamino)-3-(4-methyl-3-oxo-3,4-dihydro-2H-benzo[b][1,4]oxazin-6-ylamino)pyrazine-2-carboxamide]
10 to 100 | CC(C)[C@@H](Nc1cnc(C(N)=O)c(Nc2ccc(-c3ccccn3)cc2)n1)C(N)=O [Example 209, (R)-5-(1-amino-3-methyl-1-oxobutan-2-ylamino)-3-(4-(pyridin-2-yl)phenylamino)pyrazine-2-carboxamide]
1 to 10 | NC(=O)c1ncc(N[C@@H]2CCCC(F)(F)[C@@H]2N)nc1Nc1cc(F)c2ncccc2c1 [Example 210, 5-((1R,2R)-2-amino-3,3-difluorocyclohexylamino)-3-(8-fluoroquinolin-6-ylamino)pyrazine-2-carboxamide]
1 to 10 | Cc1cc(Nc2nc(NC3(C(N)=O)CC3)cnc2C(N)=O)sn1 [Example 220, 5-(1-carbamoylcyclopropylamino)-3-(3-methylisothiazol-5-ylamino)pyrazine-2-carboxamide]
10 to 100 | NC(=O)c1ncc(N[C@@H]2CCCC[C@@H]2N)nc1Nc1cc(C2CC2)no1 [Example 231, 5-((1R,2S)-2-aminocyclohexylamino)-3-(3-cyclopropylisoxazol-5-ylamino)pyrazine-2-carboxamide]
1 to 10 | CC(C)(C)[C@@H](Nc1cnc(C(N)=O)c(Nc2cnc3ccc(F)cc3c2)n1)C(N)=O [Example 234, (R)-5-(1-amino-3,3-dimethyl-1-oxobutan-2-ylamino)-3-(6-fluoroquinolin-3-ylamino)pyrazine-2-carboxamide]
10 to 100 | CCc1cc(Nc2nc(N[C@@H](C(N)=O)C(C)(C)C)cnc2C(N)=O)sn1 [Example 236, (R)-5-(1-amino-3,3-dimethyl-1-oxobutan-2-ylamino)-3-(3-ethylisothiazol-5-ylamino)pyrazine-2-carboxamide]
10 to 100 | CC(C)(C)[C@@H](Nc1cnc(C(N)=O)c(Nc2cnc3cccnc3c2)n1)C(N)=O [Example 237, (R)-3-(1,5-naphthyridin-3-ylamino)-5-(1-amino-3,3-dimethyl-1-oxobutan-2-ylamino)pyrazine-2-carboxamide]
